Laboratory results published in patent publication US9144570B2, “Method to enhance delivery of glutathione and ATP levels in cells” (Max International LLC, priority 2004, dated 2015).
Entries after “also recorded” stand apart in the source; their conditions may differ.

Assays:
mice [1] = conditions: cited from earlier work
Rat hepatocytes [2] = test: Inhibitory effect of BSO on GSH elevation elicited by L-cysteine prodrugs in rat hepatocytes; type: cell-based
Procedure: (§1) Rat hepatocytes were isolated following the methods of P. O. Seglen, Exper. Cell Res., 74, 450 (1972). After final plating, the hepatocytes were maintained in culture for 24 hr prior to use. Only primary cultures were used throughout the studies. […] Total GSH content (GSH+GSSG) was determined by a modification of the DTNB [5,5′-dithiobis(2-nitrobenzoic acid)] glutathione reductase recycling method of F. Tietze, Anal. Biochem., 27, 502 (1969). The GSH concentration in the sample was quantified by determining the cycling rate (ΔOD at 412 nm/min) of the sample.

Rat hepatocytes [3] = test: Glutathione content of isolated rat hepatocytes after incubation with L-cysteine prodrugs; type: cell-based; conditions: for [GSH] Rel. to Controls. / [GSH] ± SE: 4-hr incubation, RibCys 1.0 mM, NAC 2.5 mM; for [GSH] ± SE: total GSH (GSH+GSSG)
Procedure: as §1

tumor-bearing CDF1 mice = conditions: 8 mmol/kg i.p., cited from earlier work
mice [4] = conditions: RibCys; 1 g/kg in mice; cited from earlier work
mice [5] = conditions: RibCys 8 mmol/kg; cited from earlier work
canine heart = conditions: cited from earlier work
healthy human subjects = conditions: oral, 8-10 g per day, adult; cited from earlier work
human subjects = conditions: administered directly to human subjects, wide dosage ranges; cited from earlier work
[6] = prodrug 1.0 mM, cells pre-exposed to BSO 0.2 mM

SMILES: CC1N[C@H](C(=O)O)CS1 (stereo partly drawn) [2(R,S)-methyl-thiazolidine-4R-carboxylate]
- protection of mice from hepatotoxic dosages of acetaminophen (mice [1]): protect mice from heptatotoxic dosages of acetaminophen

SMILES: CCCCCC1N[C@H](C(=O)O)CS1 (stereo partly drawn) [2(R,S)-n-pentyl-thiazolidine-4R-carboxylate]
- protection of mice from hepatotoxic dosages of acetaminophen (mice [1]): protect mice from heptatotoxic dosages of acetaminophen

SMILES: CCCC1N[C@H](C(=O)O)CS1 (stereo partly drawn) [2(R,S)-n-propyl-thiazolidine-4R-carboxylate]
- protection of mice from hepatotoxic dosages of acetaminophen (mice [1]): protect mice from heptatotoxic dosages of acetaminophen

SMILES: CCCCS(=N)(=O)CCC(N)C(=O)O (stereo not drawn) [BSO, Buthionine Sulfoximine]
- [GSH] Rel. to Controls. (Rat hepatocytes [2]; BSO 0.2 mM alone, no prodrug): 0.5
- [GSH] ± SE (Rat hepatocytes [2]; BSO 0.2 mM alone, no prodrug): 18.4 ± 2.08 nmol/10^6 cells

SMILES: O=C1N[C@H](C(=O)O)CS1 [L-2-oxothiazolidine-4-carboxylate]
- protection of mice from hepatotoxic dosages of acetaminophen (mice [1]): protect mice from heptatotoxic dosages of acetaminophen

SMILES: CC(=O)N[C@@H](CS)C(=O)O [N-Acetyl-L-cysteine (NAC), N-Acetyl-L-cysteine]
- [GSH] Rel. to Controls. (Rat hepatocytes [3]): 1.3
- GSH levels raised by (Rat hepatocytes [3]; NAC, 2.5 times the concentration of the thiazolidine prodrugs): 30%
- [GSH] ± SE (Rat hepatocytes [3]): 45.8 ± 1.27 nmol/10^6 cells
- [GSH] Rel. to Controls. (Rat hepatocytes [2]; [6]): 0.7
- [GSH] ± SE (Rat hepatocytes [2]; [6]): 25.5 ± 1.59 nmol/10^6 cells
- protection of mice from hepatotoxic dosages of acetaminophen (mice [1]): protect mice from heptatotoxic dosages of acetaminophen

SMILES: O=C(O)[C@@H]1CSC(C(O)C(O)C(O)CO)N1 (stereo partly drawn) [RibCys, 2(R,S)-D-ribo-1′,2′,3′,4′-Tetrahydroxybutylthiazolidine-4(R)-carboxylic Acid]
- [GSH] Rel. to Controls. (Rat hepatocytes [3]): about 1.7
- [GSH] Rel. to Controls. (Rat hepatocytes [3]; listed as RibCys (Ia)): 1.7
- [GSH] ± SE (Rat hepatocytes [3]): 61.2 ± 1.52 nmol/10^6 cells
- [GSH] Rel. to Controls. (Rat hepatocytes [2]; [6]): 0.5
- [GSH] ± SE (Rat hepatocytes [2]; [6]): 16.2 ± 3.60 nmol/10^6 cells
- GSH in the liver compared to untreated controls (tumor-bearing CDF1 mice; 16-h time point): 1.5 fold
- GSH in bladder relative to controls (tumor-bearing CDF1 mice; maximal GSH content): 2.1 fold
- GSH in muscle relative to control animals (tumor-bearing CDF1 mice; maximal GSH content): 2.5 times
- Kidney GSH relative to control values (tumor-bearing CDF1 mice; maximal at 16 h): 1.6 times control values
- GSH in implanted L1210 tumors relative to controls (tumor-bearing CDF1 mice): 1.2 fold
- protection against acetaminophen hepatic and renal toxicity (mice [1]; RibCys, 2 g/kg in mice): effective to protect against acetaminophen-induced hepatic and renal toxicity; also recorded: protect mice against acetaminophen hepatic and renal toxicity
- protection against radiation-induced bowel injury (mice [4]): protect the large and small bowel against radiation injury; also recorded: protect mice against irradiation-induced bowel injury
- protection of mice exposed to cyclophosphamide (mice [5]): deliver effective protective amounts of cysteine to mice exposed to cyclophosphamide

SMILES: O=C[C@H](O)[C@H](O)[C@H](O)CO [ribose]
- decrease in the ATP recovery time (canine heart; 80 mM ribose in normal saline, about 1 ml/min for about 24.0 hours, about 550-700 mg/kg): eight-fold decrease
- recovery of ATP levels in heart recovering from ischemia (canine heart; intravenous perfusion): recovery of ATP levels is enhanced
- ATP levels in dogs subjected to ischemia (heart attack model) (canine heart; ribose about 3 g/day for at least 5 days): effectively restored and maintained ATP levels
- exercise capacity (healthy human subjects): increase exercise capacity
- toxicity (human subjects): essentially non-toxic
